US11833160B2, “Ursodeoxycholic acid derivatives as HDAC inhibitors for the treatment of polycystic diseases” (UNIVERSIDAD DEL PAIS VASCO/EUSKAL HERRIKO UNIBERTSITATEA, priority 2017, dated 2023)
Blank lines part the entries; values can stand above or below the compound they belong to.

Legend:
[1] = target: T1, human HDAC6 (Homo sapiens, UniProt Q9UBN7); assay: HDAC6 enzymatic activity assay (fluorogenic peptide); format: biochemical; conditions: for IC50: 10-dose, 3-fold serial dilution, triplicate; for HDAC6 selectivity proportion: matches IC50 HDAC1 / IC50 HDAC6
T1 construct: GST (N); purchased BioMol SE-508; host or cells: baculovirus / Sf9 cells
T1 sequence (Q9UBN7 1-1215): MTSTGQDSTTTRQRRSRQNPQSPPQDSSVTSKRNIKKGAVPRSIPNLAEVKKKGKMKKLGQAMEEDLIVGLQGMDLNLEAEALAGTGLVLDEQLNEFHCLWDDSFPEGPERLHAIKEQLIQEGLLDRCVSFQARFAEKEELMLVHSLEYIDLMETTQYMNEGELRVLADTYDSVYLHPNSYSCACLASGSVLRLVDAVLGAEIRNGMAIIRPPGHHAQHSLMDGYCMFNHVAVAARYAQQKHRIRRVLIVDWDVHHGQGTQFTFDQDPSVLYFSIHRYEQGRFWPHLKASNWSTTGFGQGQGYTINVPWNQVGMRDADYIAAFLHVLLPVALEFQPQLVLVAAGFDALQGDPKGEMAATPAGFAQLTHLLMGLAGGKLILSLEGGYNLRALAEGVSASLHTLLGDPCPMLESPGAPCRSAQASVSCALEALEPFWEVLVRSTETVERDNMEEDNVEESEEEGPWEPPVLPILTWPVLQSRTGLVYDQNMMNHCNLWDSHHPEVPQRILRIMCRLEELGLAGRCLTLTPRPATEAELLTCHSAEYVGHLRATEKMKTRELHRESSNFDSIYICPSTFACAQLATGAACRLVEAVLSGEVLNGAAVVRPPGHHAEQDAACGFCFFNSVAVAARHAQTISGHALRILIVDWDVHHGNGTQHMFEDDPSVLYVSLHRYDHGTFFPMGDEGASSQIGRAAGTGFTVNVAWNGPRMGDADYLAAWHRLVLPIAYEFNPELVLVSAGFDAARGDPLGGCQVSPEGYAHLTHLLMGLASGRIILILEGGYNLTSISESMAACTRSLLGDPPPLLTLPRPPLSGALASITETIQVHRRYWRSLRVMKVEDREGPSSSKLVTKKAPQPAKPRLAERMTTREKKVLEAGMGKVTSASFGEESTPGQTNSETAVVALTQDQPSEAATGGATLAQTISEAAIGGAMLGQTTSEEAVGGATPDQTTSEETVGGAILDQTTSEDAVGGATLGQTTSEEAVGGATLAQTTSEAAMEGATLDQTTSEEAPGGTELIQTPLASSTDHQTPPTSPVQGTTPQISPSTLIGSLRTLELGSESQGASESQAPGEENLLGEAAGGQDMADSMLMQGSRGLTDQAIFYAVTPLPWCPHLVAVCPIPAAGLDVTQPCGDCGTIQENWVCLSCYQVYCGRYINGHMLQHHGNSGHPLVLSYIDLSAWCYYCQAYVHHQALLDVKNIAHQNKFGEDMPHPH
Method: (§1) Peptide substrates: all HDAC assays were performed using acetylated peptide substrates labeled with 7-amino-4-methylcoumarin (AMC): • Substrate for isoforms HDAC1, 2, 3, 6, 10, 11, and HeLa nuclear extract assays: acetylated fluorogenic peptide from p53 residues 379-382 (RHKKAc). • Substrate for isoforms HDAC4, 5, 7, 9: fluorogenic Boc-L-Lys (s-trifluoroacetyl)-AMC. • Substrate for HDAC8 assays: acetylated fluorogenic peptide from p53 residues 379-382 (RHKAcKAc).
(§2) 50 μl of peptide substrate (see “peptide substrates” section above) and an optimal concentration of the corresponding enzyme (see “enzymes” section above) in the assay buffer at a final DMSO concentration of 1% were incubated in the presence of gradient concentrations of inhibitors (10-dose IC50 mode with 3-fold serial dilution) at 30° C. for 2 hours. The reactions were carried out in a 96-well microplate for fluorometry in a 50 μl reaction volume. After the deacetylation reaction, Fluor-de-Lys-Developer (BioMol Cat. #KI-105) was added to each well to digest the deacetylated substrate, thereby producing the fluorescent signal. The reaction was carried out for 45 minutes at 30° C. with 5% CO2; the fluorescent signal was then measured using an excitation wavelength of 360 nm and an emission wavelength of 460 nm in a microplate-reading fluorometer (GeminiXS, Molecular Devices, Sunnyvale, CA). A curve of deacetylated standard (Biomol, Cat. #KI-142; made from 100 μM with 1:2 dilution and 10 doses, 6 μl) allowed the conversion of the fluorescent signal into micromoles of deacetylated product. All experiments were performed in triplicate. The IC50s were calculated by fitting the experimental data to dose-response curve. DMSO was used as negative control; Trichostatin A (Biomol Cat. #GR-309) was used as positive control inhibitor.
(§3) Enzymatic activity assays were carried out in 11 HDAC enzymes, including HDAC6.

[2] = tested on: HDAC enzymes; assay: Enzymatic activity assays in 11 HDAC enzymes (statements on the panel); format: biochemical, human; conditions: for inhibitory capacity with respect to the rest of the HDAC enzymes: HDAC enzymes other than HDAC6
Method: as §1, §2, §3

[3] = target: T2, human HDAC1 (Homo sapiens, UniProt Q13547); assay: HDAC1 enzymatic activity assay (fluorogenic peptide); format: biochemical; conditions: for IC50: 10-dose, 3-fold serial dilution, triplicate
T2 construct: GST (C); purchased BioMol SE-456; host or cells: baculovirus / Sf9 cells
Method: as §1, §2, §3

[4] = target: T3, human HDAC5 (Homo sapiens, UniProt Q9UQL6); assay: HDAC5 enzymatic activity assay (fluorogenic peptide); format: biochemical; conditions: 10-dose, 3-fold serial dilution, triplicate
T3 construct: GST (N); purchased BioMol, Hamburg, Germany; host or cells: baculovirus / Sf9 cells
Method: as §1
50 μl of peptide substrate (see “peptide substrates” section above) and an optimal concentration of the corresponding enzyme (see “enzymes” section above) in the assay buffer at a final DMSO concentration of 1% were incubated in the presence of gradient concentrations of inhibitors (10-dose IC50 mode with 3-fold serial dilution) at 30° C. for 2 hours. The reactions were carried out in a 96-well microplate for fluorometry in a 50 μl reaction volume. After the deacetylation reaction, Fluor-de-Lys-Developer (BioMol Cat. #KI-105) was added to each well to digest the deacetylated substrate, thereby producing the fluorescent signal. The reaction was carried out for 45 minutes at 30° C. with 5% CO2; the fluorescent signal was then measured using an excitation wavelength of 360 nm and an emission wavelength of 460 nm in a microplate-reading fluorometer (GeminiXS, Molecular Devices, Sunnyvale, CA). […]

[5] = target: T4, human HDAC8 (Homo sapiens, UniProt Q9BY41); assay: HDAC8 enzymatic activity assay (fluorogenic peptide); format: biochemical; conditions: 10-dose, 3-fold serial dilution, triplicate
T4 construct: purchased BioMol SE-145; host or cells: E. coli
T4 sequence (Q9BY41 1-377): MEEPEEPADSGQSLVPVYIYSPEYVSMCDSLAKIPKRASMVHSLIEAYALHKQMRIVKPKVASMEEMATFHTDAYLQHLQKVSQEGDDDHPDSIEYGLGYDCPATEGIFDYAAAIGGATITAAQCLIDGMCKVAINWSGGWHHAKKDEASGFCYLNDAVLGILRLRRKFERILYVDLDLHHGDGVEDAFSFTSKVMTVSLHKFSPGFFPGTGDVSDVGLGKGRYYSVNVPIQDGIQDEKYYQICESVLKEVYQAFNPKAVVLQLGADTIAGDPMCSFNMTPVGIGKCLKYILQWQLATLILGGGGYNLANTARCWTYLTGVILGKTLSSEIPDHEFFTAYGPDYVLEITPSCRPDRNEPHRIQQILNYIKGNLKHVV
Method: as §1, §2, §3

[6] = target: T5, human HDAC7 (Homo sapiens, UniProt Q8WUI4); assay: HDAC7 enzymatic activity assay (fluorogenic peptide); format: biochemical; conditions: 10-dose, 3-fold serial dilution, triplicate
T5 construct: amino acids 518 end with GST N-terminal tag, MW=78 kDa; GST (N); purchased BioMol, Hamburg, Germany; host or cells: baculovirus expression system
T5 sequence (Q8WUI4 479-952 limits assumed): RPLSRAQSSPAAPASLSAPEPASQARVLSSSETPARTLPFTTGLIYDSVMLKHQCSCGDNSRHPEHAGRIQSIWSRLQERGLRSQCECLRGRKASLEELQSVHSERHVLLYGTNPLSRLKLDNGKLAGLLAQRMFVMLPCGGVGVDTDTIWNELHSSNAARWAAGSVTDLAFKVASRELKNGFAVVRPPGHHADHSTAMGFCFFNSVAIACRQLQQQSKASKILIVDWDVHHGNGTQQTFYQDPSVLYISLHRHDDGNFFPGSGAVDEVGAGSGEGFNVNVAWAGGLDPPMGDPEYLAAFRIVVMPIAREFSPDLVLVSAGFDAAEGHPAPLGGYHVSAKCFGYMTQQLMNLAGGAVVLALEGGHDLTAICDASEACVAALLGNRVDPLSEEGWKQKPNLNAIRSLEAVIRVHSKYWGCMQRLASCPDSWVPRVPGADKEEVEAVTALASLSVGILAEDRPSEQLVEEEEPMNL
Method: as §1, §2, §3

[7] = target: T6, human HDAC2 (Homo sapiens, UniProt Q92769); assay: HDAC2 enzymatic activity assay (fluorogenic peptide); format: biochemical; conditions: 10-dose, 3-fold serial dilution, triplicate
T6 construct: His (C); purchased BioMol SE-500; host or cells: baculovirus / Sf9 cells
Method: as §1, §2, §3

T2 sequence (Q13547 whole entry): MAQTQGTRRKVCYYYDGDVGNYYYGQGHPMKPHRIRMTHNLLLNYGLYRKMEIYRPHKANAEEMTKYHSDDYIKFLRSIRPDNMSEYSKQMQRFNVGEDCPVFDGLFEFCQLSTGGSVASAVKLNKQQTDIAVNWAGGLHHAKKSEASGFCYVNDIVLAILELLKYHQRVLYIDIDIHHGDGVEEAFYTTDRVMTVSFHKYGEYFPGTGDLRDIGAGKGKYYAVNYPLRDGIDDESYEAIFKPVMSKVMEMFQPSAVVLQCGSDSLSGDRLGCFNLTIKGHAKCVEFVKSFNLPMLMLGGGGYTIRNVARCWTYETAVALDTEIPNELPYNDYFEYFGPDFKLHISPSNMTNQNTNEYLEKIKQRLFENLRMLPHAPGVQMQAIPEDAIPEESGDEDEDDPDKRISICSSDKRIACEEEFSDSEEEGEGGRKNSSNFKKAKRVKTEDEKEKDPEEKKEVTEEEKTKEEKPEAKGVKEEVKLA
T3 sequence (Q9UQL6 1-1123 isoform Q9UQL6-3): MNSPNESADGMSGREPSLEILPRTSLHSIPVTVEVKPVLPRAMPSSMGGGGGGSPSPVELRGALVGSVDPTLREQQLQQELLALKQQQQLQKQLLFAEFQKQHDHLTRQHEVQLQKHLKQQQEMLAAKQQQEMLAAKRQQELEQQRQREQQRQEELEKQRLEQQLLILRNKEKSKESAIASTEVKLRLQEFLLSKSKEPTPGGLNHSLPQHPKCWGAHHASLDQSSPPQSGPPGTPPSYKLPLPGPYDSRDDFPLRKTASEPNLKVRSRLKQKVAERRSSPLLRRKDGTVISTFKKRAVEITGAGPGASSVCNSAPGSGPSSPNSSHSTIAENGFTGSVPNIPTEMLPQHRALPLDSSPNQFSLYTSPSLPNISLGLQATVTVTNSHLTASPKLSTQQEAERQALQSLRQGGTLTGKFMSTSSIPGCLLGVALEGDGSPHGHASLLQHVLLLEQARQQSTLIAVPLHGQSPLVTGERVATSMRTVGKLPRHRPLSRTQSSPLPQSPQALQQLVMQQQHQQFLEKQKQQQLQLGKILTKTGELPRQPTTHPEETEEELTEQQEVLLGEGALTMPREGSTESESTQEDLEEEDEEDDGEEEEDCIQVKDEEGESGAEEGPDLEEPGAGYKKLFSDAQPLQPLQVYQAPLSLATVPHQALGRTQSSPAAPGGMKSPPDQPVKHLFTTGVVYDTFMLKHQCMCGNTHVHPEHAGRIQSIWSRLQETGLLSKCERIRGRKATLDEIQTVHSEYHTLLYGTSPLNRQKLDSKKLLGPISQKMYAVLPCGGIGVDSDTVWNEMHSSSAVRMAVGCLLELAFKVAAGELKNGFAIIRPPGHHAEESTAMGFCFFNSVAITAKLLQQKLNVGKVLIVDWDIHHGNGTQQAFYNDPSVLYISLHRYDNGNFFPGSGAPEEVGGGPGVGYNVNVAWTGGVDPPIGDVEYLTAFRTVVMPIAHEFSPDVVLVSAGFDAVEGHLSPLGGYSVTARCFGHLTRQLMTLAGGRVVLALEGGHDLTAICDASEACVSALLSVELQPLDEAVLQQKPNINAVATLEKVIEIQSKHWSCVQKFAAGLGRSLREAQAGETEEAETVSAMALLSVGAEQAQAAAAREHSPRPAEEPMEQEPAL
T6 sequence (Q92769 whole entry): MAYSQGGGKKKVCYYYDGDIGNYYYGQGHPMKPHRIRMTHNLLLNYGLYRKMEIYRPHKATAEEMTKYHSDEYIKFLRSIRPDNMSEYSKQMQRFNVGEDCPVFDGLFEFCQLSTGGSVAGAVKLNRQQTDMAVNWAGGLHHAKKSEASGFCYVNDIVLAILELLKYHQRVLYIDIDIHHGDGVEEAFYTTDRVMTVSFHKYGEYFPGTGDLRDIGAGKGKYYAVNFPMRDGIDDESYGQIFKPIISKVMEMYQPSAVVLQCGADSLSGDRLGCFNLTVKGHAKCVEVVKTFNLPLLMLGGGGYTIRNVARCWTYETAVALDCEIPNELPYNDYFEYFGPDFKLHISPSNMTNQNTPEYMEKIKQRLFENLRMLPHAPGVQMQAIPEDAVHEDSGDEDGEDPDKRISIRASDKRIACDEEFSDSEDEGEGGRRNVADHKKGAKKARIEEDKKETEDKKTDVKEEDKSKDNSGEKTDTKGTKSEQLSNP

SMILES: C[C@H](CCC(=O)NCc1ccc(C(=O)NCc2ccc(C(=O)NO)cc2)cc1)[C@H]1CC[C@H]2[C@@H]3[C@@H](O)C[C@@H]4C[C@H](O)CC[C@]4(C)[C@H]3CC[C@]12C [Ig, 4-(((R)-4-((3R,5S,7S,8R,9S,10S,13R,14S,17R)-3,7-dihydroxy-10,13-dimethylhexadecanohydro-1H-cyclopenta[a]phenanthren-17-yl)pentanamido)methyl)-N-(4-(hydroxycarbamoyl)benzyl)benzamide]
melting point: 187 to 189 °C
selectivity and inhibitory capacity with respect to HDAC6 enzyme [1]: nanomolar range
IC50 [1]: 0.00426 µM
HDAC6 selectivity proportion [1]: 3574
inhibitory capacity with respect to the rest of the HDAC enzymes [2]: micromolar range
IC50 [3]: 15.2 µM

SMILES: C[C@H](CCC(=O)NCc1ccc(C(=O)Nc2cc(-c3ccccc3)ccc2N)cc1)[C@H]1CC[C@H]2[C@@H]3[C@@H](O)C[C@@H]4C[C@H](O)CC[C@]4(C)[C@H]3CC[C@]12C
melting point: 163 to 165 °C

SMILES: C[C@H](CCC(=O)NCCCCCC(=O)NO)[C@H]1CC[C@H]2[C@@H]3[C@@H](O)C[C@@H]4C[C@H](O)CC[C@]4(C)[C@H]3CC[C@]12C [If, 6-((R)-4-((3R,5S,7S,8R,9S,10S,13R,14S,17R)-3,7-dihydroxy-10,13-dimethylhexadecahydro-1H-cyclopenta[a]phenanthren-17-yl)pentanamide)-N-hydroxyhexanamide]
melting point: 125 to 127 °C
selectivity and inhibitory capacity with respect to HDAC6 enzyme [1]: nanomolar range
IC50 [1]: 0.0821 µM
HDAC6 selectivity proportion [1]: 31
inhibitory capacity with respect to the rest of the HDAC enzymes [2]: micromolar range
IC50 [3]: 2.57 µM

SMILES: C[C@H](CCC(=O)NCc1ccc(C(=O)NO)o1)[C@H]1CC[C@H]2[C@@H]3[C@@H](O)C[C@@H]4C[C@H](O)CC[C@]4(C)[C@H]3CC[C@]12C
melting point: 149 to 151 °C

SMILES: NCc1ccc(C(=O)NO)cc1 [4-(aminomethyl)-N-hydroxybenzamide, reference compound]
IC50 [4]: 435 µM
IC50 [5]: 13.6 µM
IC50 [6]: 14.7 µM

SMILES: C[C@H](CCC(=O)NCc1ccc(C(=O)Nc2ccccc2N)cc1)[C@H]1CC[C@H]2[C@@H]3[C@@H](O)C[C@@H]4C[C@H](O)CC[C@]4(C)[C@H]3CC[C@]12C [Ii, N-(2-aminophenyl)-4-(((R)-4-((3R,5S,7S,8R,9S,10S,13R,14S,17R)-3,7-dihydroxy-10,13-dimethylhexadecahydro-1H-cyclopenta[a]phenanthren-17-yl)pentanamide)methyl)benzamide]
melting point: 168 to 170 °C
IC50 [1]: 8.08 µM
IC50 [3]: 0.14 µM
HDAC1 selectivity proportion ([3]; matches IC50 HDAC6 / IC50 HDAC1): 58
IC50 [7]: 0.516 µM

SMILES: C[C@H](CCC(=O)Nc1ccccc1S)[C@H]1CC[C@H]2[C@@H]3[C@@H](O)C[C@@H]4C[C@H](O)CC[C@]4(C)[C@H]3CC[C@]12C
melting point: 157 to 158 °C

The remaining lines, values ahead:

melting point: 170 to 172 °C
SMILES: C[C@H](NC(=O)CC[C@@H](C)[C@H]1CC[C@H]2[C@@H]3[C@@H](O)C[C@@H]4C[C@H](O)CC[C@]4(C)[C@H]3CC[C@]12C)C(=O)NO

melting point: 116 to 117 °C
SMILES: C[C@H](CCC(=O)NCCS)[C@H]1CC[C@H]2[C@@H]3[C@@H](O)C[C@@H]4C[C@H](O)CC[C@]4(C)[C@H]3CC[C@]12C

melting point: 180 to 182 °C
SMILES: C[C@H](CCC(=O)NCCC(=O)NO)[C@H]1CC[C@H]2[C@@H]3[C@@H](O)C[C@@H]4C[C@H](O)CC[C@]4(C)[C@H]3CC[C@]12C

inhibitory activity on any HDAC ([2]; in the assayed concentration range): no inhibitory activity whatsoever
SMILES: C[C@H](CCC(=O)O)[C@H]1CC[C@H]2[C@@H]3[C@@H](O)C[C@@H]4C[C@H](O)CC[C@]4(C)[C@H]3CC[C@]12C [UDCA, ursodeoxycholic acid]

melting point: 165 to 167 °C
SMILES: C[C@H](CCC(=O)NCCCC(=O)NO)[C@H]1CC[C@H]2[C@@H]3[C@@H](O)C[C@@H]4C[C@H](O)CC[C@]4(C)[C@H]3CC[C@]12C
